# Source: patent publication US8389730B2, “Compositions and methods for the treatment of disease associated with TRP-P8 expression” (Dendreon Corporation, priority 2003, dated 2013)
# Biological target: T1, Trp-p8 (Homo sapiens, UniProt Q7Z2W7, T58I)
# T1 construct: expressed in transfected cells
# Assay: Cell viability (ATP) assay for Trp-p8 antagonists: protection of CHO/Trp-p8 cells from toxic control agonist D-1607
# Format: cell-based
# Details: Table 2, Formula VIII antagonists; 10 μM compound plus toxic concentration of control agonist D-1607, CHO/Trp-p8 cells, 37° C.; ATP level relative to DMSO
# Method: FIG. 4 is a graph depicting exemplary results from a primary screen for Trp-p8 antagonists using the ATP viability assay, described herein, with CHO/Trp-p8 cells at 37° C. CHO/Trp-p8 cells were exposed to compounds, at different concentrations, in 1% DMSO or 1% DMSO in combination with a toxic concentration of the Trp-p8 agonist 1607. The viability of cells was measured after 24-26 hours at 37° C. using the ATP assay.
# As a primary screen for efficacy and specificity for agonists, both the non-transfected CHO and CHO/Trp-p8 cells were exposed to 10 μM of test compounds in 1% dimethylsulfoxide (DMSO) or 1% DMSO (control) in a 96-well black walled, black-bottomed, cell-culture treated plate. DMSO was the solvent for all of the compounds tested. After 24-26 hours at 37° C., the cells were lysed and ATP concentration determined via a chemiluminescence assay using a commercially available reagent kit—Cell Titer-Glo (Promega; Madison, Wis.). […] (EC50 is defined herein as the agonist concentration at which there is a 50% reduction in cell viability).
# Trp-p8 antagonists were identified by employing a cell viability assay with CHO/Trp-p8 cells at 37° C. (see Example 7) with the following modification. Within the context of the present invention, compounds that protect CHO/Trp-p8 cells from the toxic effect of a control agonist thereby maintaining the viability of the CHO/Trp-p8 cell exposed to a Trp-p8 agonist is defined as antagonist. As a primary screen for antagonists, CHO/Trp-p8 cells were exposed to 10 μM of test compounds in 1% dimethylsulfoxide (DMSO) or 1% DMSO plus a toxic concentration of a control agonist, D-1607.
# T1 sequence (Q7Z2W7 whole entry T58I): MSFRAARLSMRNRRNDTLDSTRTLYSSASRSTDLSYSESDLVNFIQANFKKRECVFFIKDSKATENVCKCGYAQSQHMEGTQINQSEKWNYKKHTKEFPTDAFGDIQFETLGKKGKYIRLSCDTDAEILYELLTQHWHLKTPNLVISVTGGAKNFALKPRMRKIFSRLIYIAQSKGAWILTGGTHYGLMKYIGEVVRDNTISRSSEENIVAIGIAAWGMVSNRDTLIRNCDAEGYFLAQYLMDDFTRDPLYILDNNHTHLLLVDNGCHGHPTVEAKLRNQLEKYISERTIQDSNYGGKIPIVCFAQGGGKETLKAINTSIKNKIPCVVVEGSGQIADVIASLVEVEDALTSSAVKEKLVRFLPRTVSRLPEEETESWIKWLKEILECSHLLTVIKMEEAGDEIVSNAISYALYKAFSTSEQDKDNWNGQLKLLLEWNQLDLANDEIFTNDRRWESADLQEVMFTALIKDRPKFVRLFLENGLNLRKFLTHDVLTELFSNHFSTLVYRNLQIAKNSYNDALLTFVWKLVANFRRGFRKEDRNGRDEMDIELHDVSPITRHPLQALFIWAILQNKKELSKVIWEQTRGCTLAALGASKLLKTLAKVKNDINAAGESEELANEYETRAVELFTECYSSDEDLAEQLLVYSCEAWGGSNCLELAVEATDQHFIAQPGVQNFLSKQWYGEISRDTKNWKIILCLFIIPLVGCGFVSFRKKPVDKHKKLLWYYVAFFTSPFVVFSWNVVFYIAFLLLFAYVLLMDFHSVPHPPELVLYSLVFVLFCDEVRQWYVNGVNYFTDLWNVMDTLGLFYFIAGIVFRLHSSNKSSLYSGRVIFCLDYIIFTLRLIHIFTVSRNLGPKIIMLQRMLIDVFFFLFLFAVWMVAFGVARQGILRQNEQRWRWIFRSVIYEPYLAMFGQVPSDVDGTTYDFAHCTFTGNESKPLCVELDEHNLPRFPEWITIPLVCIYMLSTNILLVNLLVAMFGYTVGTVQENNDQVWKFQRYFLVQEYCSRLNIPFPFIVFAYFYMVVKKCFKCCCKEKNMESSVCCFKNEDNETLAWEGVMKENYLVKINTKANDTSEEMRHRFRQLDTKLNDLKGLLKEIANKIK
row,SMILES,Relative Viability (%) at 10 μM [%]
1,CC(C)[C@@H]1CC[C@@H](C)C[C@H]1NC(=O)COc1ccccc1[N+](=O)[O-] [compound 2045],191
2,CC(C)[C@@H]1CC[C@@H](C)C[C@H]1NC(=O)[C@@]12CC[C@@](C)(C(=O)O1)C2(C)C [compound 2046],89
3,CCCc1c(C(=O)N[C@@H]2C[C@H](C)CC[C@H]2C(C)C)cnn1-c1ccccc1 [compound 2067],105
4,CC(C)[C@@H]1CC[C@@H](C)C[C@H]1NS(=O)(=O)c1c(Cl)cc(Cl)cc1Cl [compound 2131],59
5,CC(C)[C@@H]1CC[C@@H](C)C[C@H]1NS(=O)(=O)c1cc(Br)c(Br)s1 [compound 2134],63
6,CC(C)[C@@H]1CC[C@@H](C)C[C@H]1NC(=O)SCc1ccccc1 [compound 2291],87
7,CC(C)[C@@H]1CC[C@@H](C)C[C@H]1NC(=O)SCc1ccccc1Cl [compound 2306],92
8,Cc1ccnc(N(Cc2ccccc2)C(=O)[C@@H]2C[C@H](C)CC[C@H]2C(C)C)c1 [compound 2639],102
9,COc1ccc(C2c3[nH]c4ccccc4c3CCN2C(=O)[C@@H]2C[C@H](C)CC[C@H]2C(C)C)cc1CN1CCc2cc(OC)c(OC)cc2C1C (stereo partly shown) [compound 2676],83
10,Cc1ccc(O)c(CN[C@@H]2C[C@H](C)CC[C@H]2C(C)C)c1 [compound 2710],70
11,CC(C)[C@@H]1CC[C@@H](C)C[C@H]1NCc1c[nH]nc1-c1ccccc1 [compound 2745],62
12,CC(C)[C@@H]1CC[C@@H](C)C[C@H]1NCc1c[nH]nc1-c1ccc(F)cc1 [compound 2752],65
13,CCc1ccc(-c2n[nH]cc2CN[C@@H]2C[C@H](C)CC[C@H]2C(C)C)cc1 [compound 2754],74
14,CCCCOc1ccc(-c2n[nH]cc2CN[C@@H]2C[C@H](C)CC[C@H]2C(C)C)cc1 [compound 2777],83
15,CC(C)[C@@H]1CC[C@@H](C)C[C@H]1C(=O)Nc1ccc(S(=O)(=O)N2CCCCCC2)cc1 [compound 2865],91
16,CC(C)[C@@H]1CC[C@@H](C)C[C@H]1C(=O)Nc1nnc(Sc2ccnc3cc(Cl)ccc23)s1 [compound 3026],86

# Same assay, conditions: Table 3, Formula VII antagonists; 10 μM compound plus toxic concentration of control agonist, CHO/Trp-p8 cells, 37° C.; ATP level relative to DMSO
row,SMILES,Rel. Viab. (%) at 10 μM [%]
1,CC1CCC(C(C)C)C(OCC(O)CN2CCN(Cc3ccc(Cl)cc3)CC2)C1 (stereo not shown) [compound 2496],82

# Biological target: T1, Trp-p8
# Assay: Calcium flux assay (Fura-2) for agonists in CHO/Trp-p8 cells at 37° C.
# Format: cell-based
# Details: 1 μM, CHO and CHO/Trp-p8 cells
# Method: FIGS. 2A-2C are graphs depicting Trp-p8 agonist-induced increases in intracellular calcium as determined by a calcium flux assay performed at 37° C.
# Calcium influx was measured using a Flexstation Microplate Fluorescence Plate Reader (Molecular Devices; Sunnyvale, Calif.). A typical assay for calcium flux was performed as follows. Cells in DMEM/Ham's F-12 based medium, typically at a density of 30,000 cells/well/100 were plated in a 96-well black-walled, clear bottomed tissue culture plate (Greiner Bio-one) and incubated for 16-20 hours at 37° C. Cells in each well were incubated for one hour at 37° C. with a Fura2-AM Fluorescent Dye/Pluronic […] mixture (Molecular Probes; Eugene, Oreg.) and dissolved in the medium containing Probenecid. […]
# Typically, the above described HEPES/HBSS-based buffer containing either no additional calcium or with calcium to increase the concentration to 2 mM and various concentrations of compounds (at 5-times the final concentrations) were added to each well using the robotic multi-channel pipettor. […] Signals were read with dual excitation wavelengths of 340 and 380 nm and emission wavelength of 510 nm with a cut-off filter at 495 nm. The signal was reported as the ratio of emission when excited at 340 nm to the emission when excited at 380 nm [Relative Fluorescence Units (RFU)]. […]
row,SMILES,Response to positive control in calcium flux assay (FIG. 2A)
1,"C[C@H](CCC(=O)O)C[C@H](C)C[C@H](C)C(=O)/C=C(\O)[C@H](C)C[C@H](C)C/C=C/[C@@H](C)[C@@H](O)[C@@H](C)[C@@H](O)C[C@@H]1CC[C@@](C)([C@H]2CC[C@@](C)([C@@H](C)O)O2)O1 [Ionomycin, reference compound]",respond similarly

# Same assay, conditions: CHO/Trp-p8 cells
row,SMILES,Increase in intracellular calcium (FIG. 2C)
1,CC(C)[C@@H]1CC[C@@H](C)C[C@H]1C(=O)NCCc1ccccc1 [compound 1603],"specific, concentration-dependent response"

# Test system: Trp-p8 orthologues
# Assay: not given
# Details: reported by McKemy et al. and Peier et al.; cited from earlier work
row,SMILES,Effective concentration in inducing calcium influx [µM]
1,"O=C1NC(c2cccc([N+](=O)[O-])c2)=CCN1c1ccccc1O [Icilin, 1-(2-hydroxyphenyl)-4-(3-nitrophenyl)-1,2,3,6-tetrahydropyrimidine-2-one]",0.1 to 1
2,"CC1CCC(C(C)C)C(O)C1 (stereo not shown) [Menthol, 2-isopropyl-5-methyl-cyclohexanol]",10 to 100

# Test system: Trp-p8
# Assay: not given
# Details: cold-sensitive neurons, Trp-p8 in Xenopus oocytes, HEK293 and CHO cells; cited from earlier work
row,SMILES,Higher temperature threshold reported for Trp-p8 activation
1,"CC1CCC(C(C)C)C(O)C1 (stereo not shown) [Menthol, 2-isopropyl-5-methyl-cyclohexanol]",30-32 °C
